Assay results reported in US10647713B2 (Nimbus Lakshmi, Inc., priority 2016, dated 2020).

The molecules below were run against human TYK2 (JH2domain-pseudokinase) (Homo sapiens (Human), UniProt P29597) (assay: TYK2 JH2 Domain Binding Assay (KINOMEscan, DiscoveRx)). Details: 11-point dilution, duplicate.
Summary of the method: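 TYK2 JH2 (G556–D888)–NFkB DBD fusion, DNA-tagged, from HEK293 extracts (<0.1 nM) competed against immobilised biotinylated ligand for 1 h at room temperature, 0.9% DMSO. Bead-retained kinase quantified by qPCR; Kd from 11-point 3-fold series (top 30,000 nM, duplicate), Hill fit with slope −1.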

human TYK2 (JH2domain-pseudokinase), sequence (P29597 556-888): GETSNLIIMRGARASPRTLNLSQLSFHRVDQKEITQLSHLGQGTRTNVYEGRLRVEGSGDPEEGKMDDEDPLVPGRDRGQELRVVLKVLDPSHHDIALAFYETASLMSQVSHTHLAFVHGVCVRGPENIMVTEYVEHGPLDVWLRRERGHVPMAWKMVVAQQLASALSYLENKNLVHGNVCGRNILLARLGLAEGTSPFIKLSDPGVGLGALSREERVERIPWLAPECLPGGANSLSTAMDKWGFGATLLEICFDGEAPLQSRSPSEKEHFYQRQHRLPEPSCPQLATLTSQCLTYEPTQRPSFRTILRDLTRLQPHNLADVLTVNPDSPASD

Kd | SMILES
1 to 10 nM | Cn1cnc(-c2ccc(Nc3cc(NC(=O)C4CC4(F)F)nc4[nH]c(C(F)F)nc34)c(S(C)(=O)=O)c2)c1 (centres unmarked) [I-381, N-(2-(difluoromethyl)-7-((4-(1-methyl-1H-imidazol-4-yl)-2-(methylsulfonyl)phenyl)amino)-3H-imidazo[4,5-b]pyridin-5-yl)-2,2-difluorocyclopropane-1-carboxamide]
0.1 to 0.5 nM | Cc1cc(-c2ccc(Nc3cc(NC(=O)C4CC4)nc4[nH]c(C(F)F)nc34)c(N(C)S(C)(=O)=O)c2)nn1C [I-187, N-(2-(difluoromethyl)-7-((4-(1,5-dimethyl-1H-pyrazol-3-yl)-2-(N-methylmethylsulfonamido)phenyl)amino)-3H-imidazo[4,5-b]pyridin-5-yl)cyclopropanecarboxamide]
< 0.1 nM | COCCOc1ccc(Nc2cc(Nc3ccc(F)cc3S(C)(=O)=O)c3nc(C)[nH]c3n2)nc1C#N [I-622, 6-((7-((4-fluoro-2-(methylsulfonyl)phenyl)amino)-2-methyl-3H-imidazo[4,5-b]pyridin-5-yl)amino)-3-(2-methoxyethoxy)picolinonitrile]
0.5 to 1 nM | COc1c(Nc2cc(Nc3ccc(NCCCCl)c(C#N)n3)nc3[nH]c(C)nc23)cccc1-c1nnn(C)n1 [I-403, 3-((3-chloropropyl)amino)-6-((7-((2-methoxy-3-(2-methyl-2H-tetrazol-5-yl)phenyl)amino)-2-methyl-3H-imidazo[4,5-b]pyridin-5-yl)amino)picolinonitrile]
0.1 to 0.5 nM | Cc1nc2c(Nc3ccc(F)cc3S(C)(=O)=O)cc(Nc3cccc(C#N)n3)nc2[nH]1 [I-553, 6-((7-((4-fluoro-2-(methylsulfonyl)phenyl)amino)-2-methyl-3H-imidazo[4,5-b]pyridin-5-yl)amino)picolinonitrile]
0.5 to 1 nM | COc1c(Nc2cc(NC(=O)C3C[C@@H]3F)nc3[nH]c(C)nc23)cccc1-c1ncn(C)n1 (stereo in doubt) [I-368, 2-fluoro-N-(7-((2-methoxy-3-(1-methyl-1H-1,2,4-triazol-3-yl)phenyl)amino)-2-methyl-3H-imidazo[4,5-b]pyridin-5-yl)cyclopropane-1-carboxamide]
1 to 10 nM | COc1c(Nc2cc(Nc3cnc(C(C)(C)OC)c(C)n3)nc3[nH]c(C)nc23)cccc1-c1nnn(C)n1 [I-138, N7-(2-methoxy-3-(2-methyl-2H-tetrazol-5-yl)phenyl)-N5-(5-(2-methoxypropan-2-yl)-6-methylpyrazin-2-yl)-2-methyl-3H-imidazo[4,5-b]pyridine-5,7-diamines]
< 0.1 nM | Cc1cc(Nc2cc(Nc3ccc(-c4nn(C)cc4C)cc3S(C)(=O)=O)c3nc(C(F)F)[nH]c3n2)nc(C)n1 [I-510, 2-(difluoromethyl)-N7-(4-(1,4-dimethyl-1H-pyrazol-3-yl)-2-(methylsulfonyl)phenyl)-N5-(2,6-dimethylpyrimidin-4-yl)-3H-imidazo[4,5-b]pyridine-5,7-diamine]
0.1 to 0.5 nM | CS(=O)(=O)c1cc(-c2ccn(C3CC3)n2)ccc1Nc1cc(NC(=O)C2CC2)nc2[nH]c(C(F)F)nc12 [I-287, N-(7-((4-(1-cyclopropyl-1H-pyrazol-3-yl)-2-(methylsulfonyl)phenyl)amino)-2-(difluoromethyl)-3H-imidazo[4,5-b]pyridin-5-yl)cyclopropanecarboxamide]
0.1 to 0.5 nM | Cc1c(-c2ccc(Nc3cc(Nc4cccc(C#N)n4)nc4[nH]c(C(F)F)nc34)c(S(C)(=O)=O)c2)cnn1C [I-302, 6-((2-(difluoromethyl)-7-((4-(1,5-dimethyl-1H-pyrazol-4-yl)-2-(methylsulfonyl)phenyl)amino)-3H-imidazo[4,5-b]pyridin-5-yl)amino)picolinonitrile]
1 to 10 nM | Cc1cn(C)nc1-c1ccc(Nc2cc(NC(=O)[C@H]3CC3(C)C)nc3[nH]c(C(F)F)nc23)c(S(C)(=O)=O)c1 [I-460, (S)—N-(2-(difluoromethyl)-7-((4-(1,4-dimethyl-1H-pyrazol-3-yl)-2-(methylsulfonyl)phenyl)amino)-3H-imidazo[4,5-b]pyridin-5-yl)-2,2-dimethylcyclopropane-1-carboxamide]
1 to 10 nM | COc1c(Nc2cc(Nc3cccc(C#N)n3)nc3[nH]c(C)nc23)cccc1-c1nc(C)cs1 [I-543, 6-((7-((2-methoxy-3-(4-methylthiazol-2-yl)phenyl)amino)-2-methyl-3H-imidazo[4,5-b]pyridin-5-yl)amino)picolinonitrile]
0.1 to 0.5 nM | Cc1nc2c(Nc3ccc(F)cc3S(C)(=O)=O)cc(NC(=O)C3CC3)nc2[nH]1 [I-443, N-(7-((4-fluoro-2-(methylsulfonyl)phenyl)amino)-2-methyl-3H-imidazo[4,5-b]pyridin-5-yl)cyclopropanecarboxamide]
1 to 10 nM | COc1c(Nc2cc(Nc3cccc(C#N)n3)nc3[nH]c(C(F)F)nc23)cccc1-c1nc(C)cs1 [I-349]
0.1 to 0.5 nM | Cc1nc2c(Nc3ccc(-c4ncc(C)s4)cc3S(C)(=O)=O)cc(NC(=O)C3CC3)nc2[nH]1 [I-305, N-(2-methyl-7-((2-(methylsulfonyl)-4-(5-methylthiazol-2-yl)phenyl)amino)-3H-imidazo[4,5-b]pyridin-5-yl)cyclopropanecarboxamide]

The next lines start with the molecule.

SMILES | Kd
COc1c(Nc2cc(Nc3ccc(C(=O)N4CCCC4)c(C(F)(F)F)n3)nc3[nH]c(C(F)F)nc23)cccc1-c1nnn(C)n1 [I-36, (6-((2-(difluoromethyl)-7-((2-methoxy-3-(2-methyl-2H-tetrazol-5-yl)phenyl)amino)-3H-imidazo[4,5-b]pyridin-5-yl)amino)-2-(trifluoromethyl)pyridin-3-yl)(pyrrolidin-1-yl)methanone] | 0.1 to 0.5 nM
COc1c(Nc2cc(Nc3cccc(C#N)n3)nc3[nH]c(C)nc23)cccc1-c1nc(C)nn1C [I-542, 6-((7-((3-(1,3-dimethyl-1H-1,2,4-triazol-5-yl)-2-methoxyphenyl)amino)-2-methyl-3H-imidazo[4,5-b]pyridin-5-yl)amino)picolinonitrile] | 0.5 to 1 nM
COc1c(Nc2cc(NC(=O)C3CC3)nc3[nH]c(C)nc23)cccc1-c1cnn(C)c1 [I-107, N-(7-((2-methoxy-3-(1-methyl-1H-pyrazol-4-yl)phenyl)amino)-2-methyl-3H-imidazo[4,5-b]pyridin-5-yl)cyclopropanecarboxamide] | 1 to 10 nM
COc1c(Nc2cc(NC(=O)C3CC3)nc3[nH]c(C4CC4)nc23)cccc1-c1ncn(C)n1 [I-9, N-(2-cyclopropyl-7-((2-methoxy-3-(1-methyl-1H-1,2,4-triazol-3-yl)phenyl)amino)-3H-imidazo[4,5-b]pyridin-5-yl)cyclopropanecarboxamide] | > 10 nM
COc1c(Nc2cc(Nc3ccc(N4CCCC4=O)c(C#N)n3)nc3[nH]c(C)nc23)cccc1-c1nnn(C)n1 [I-109, 6-((7-((2-methoxy-3-(2-methyl-2H-tetrazol-5-yl)phenyl)amino)-2-methyl-3H-imidazo[4,5-b]pyridin-5-yl)amino)-3-(2-oxopyrrolidin-1-yl)picolinonitrile] | 0.1 to 0.5 nM
COc1c(Cl)cccc1Nc1cc(NC(=O)C2CC2)nc2[nH]c(C(F)F)nc12 [I-19, N-(7-((3-chloro-2-methoxyphenyl)amino)-2-(difluoromethyl)-3H-imidazo[4,5-b]pyridin-5-yl)cyclopropanecarboxamide] | > 10 nM
COc1c(Nc2cc(Nc3ccc(C)nn3)nc3[nH]c(C(F)F)nc23)cccc1-c1ccn(C)n1 [I-26, 2-(difluoromethyl)-N7-(2-methoxy-3-(1-methyl-1H-pyrazol-3-yl)phenyl)-N5-(6-methylpyridazin-3-yl)-3H-imidazo[4,5-b]pyridine-5,7-diamine] | 0.1 to 0.5 nM
COc1c(Nc2cc(Nc3cccc(C#N)n3)nc3[nH]c(C(F)F)nc23)cccc1-c1noc(C)n1 [I-598, 6-((2-(difluoromethyl)-7-((2-methoxy-3-(5-methyl-1,2,4-oxadiazol-3-yl)phenyl)amino)-3H-imidazo[4,5-b]pyridin-5-yl)amino)picolinonitrile] | 0.5 to 1 nM
COc1c(Nc2cc(NC(=O)C3CC3)nc3[nH]c(C(F)F)nc23)cccc1-c1cnn(C)c1 [I-34, N-(2-(difluoromethyl)-7-((2-methoxy-3-(1-methyl-1H-pyrazol-4-yl)phenyl)amino)-3H-imidazo[4,5-b]pyridin-5-yl)cyclopropanecarboxamide] | > 10 nM
Cc1nc(-c2ccc(Nc3cc(Nc4cnc(C)c(C)n4)nc4[nH]c(C(F)F)nc34)c(S(C)(=O)=O)c2)c(C)s1 [I-580, 2-(difluoromethyl)-N5-(5,6-dimethylpyrazin-2-yl)-N7-(4-(2,5-dimethylthiazol-4-yl)-2-(methylsulfonyl)phenyl)-3H-imidazo[4,5-b]pyridine-5,7-diamine] | 0.1 to 0.5 nM
CS(=O)(=O)c1cc(C2COCCO2)ccc1Nc1cc(NC(=O)C2CC2)nc2[nH]c(C(F)F)nc12 (stereo in doubt) [I-614, (S)—N-(7-((4-(1,4-dioxan-2-yl)-2-(methylsulfonyl)phenyl)amino)-2-(difluoromethyl)-3H-imidazo[4,5-b]pyridin-5-yl)cyclopropanecarboxamide] | 0.1 to 0.5 nM
COc1cc(C(=O)N2CCOCC2)ccc1Nc1cc(NC(=O)C2CC2)nc2[nH]c(C(F)F)nc12 [I-15, N-(2-(difluoromethyl)-7-((2-methoxy-4-(morpholine-4-carbonyl)phenyl)amino)-3H-imidazo[4,5-b]pyridin-5-yl)cyclopropanecarboxamide] | 1 to 10 nM
CN(c1cc(N2CCC2)ccc1Nc1cc(NC(=O)C2CC2)nc2[nH]c(C(F)F)nc12)S(C)(=O)=O [I-89, N-(7-((4-(azetidin-1-yl)-2-(N-methylmethylsulfonamido)phenyl)amino)-2-(difluoromethyl)-3H-imidazo[4,5-b]pyridin-5-yl)cyclopropanecarboxamide] | 0.5 to 1 nM
COc1c(Nc2cc(NC(=O)C3CC3)nc3[nH]c(C(F)F)nc23)ccc(-c2cc(C)n(C)n2)c1F [I-576, N-(2-(difluoromethyl)-7-((4-(1,5-dimethyl-1H-pyrazol-3-yl)-3-fluoro-2-methoxyphenyl)amino)-3H-imidazo[4,5-b]pyridin-5-yl)cyclopropanecarboxamide] | > 10 nM
